According to ChEMBL document CHEMBL1147331, “Cytotoxic and antimalarial bisbenzylisoquinoline alkaloids from Stephania erecta” (J Nat Prod, 1993):
Converted amounts (≈) assume the structure as drawn.

Experiments:
[1] = in vitro; details: mouse, P388 cells
Description: Selectivity index, ratio of ED50 for mice (Mus musculus) P388 cells to ED50 for chloroquine-resistant Plasmodium falciparum W2

[2] = Cytotoxicity against human Col1 cells after 3 days by sulforhodamine B assay; format: cell-based; details: read-out: ED50
[3] = system: Plasmodium falciparum; test: Antimalarial activity after 24 hrs against chloroquine-sensitive Plasmodium falciparum D6 infected type A+ human erythrocytes by [3H]hypoxanthine uptake; format: functional; details: read-out: ED50 (the source's name)
[4] = Selectivity index, ratio of ED50 for human HT1080 cells to ED50 for chloroquine-sensitive Plasmodium falciparum D6; format: toxicity, cell-based, HT-1080; details: read-out: Ratio ED50
[5] = Cytotoxicity against human KB cells after 3 days by sulforhodamine B assay; format: cell-based; details: read-out: ED50
[6] = Selectivity index, ratio of ED50 for human COL1 cells to ED50 for chloroquine-sensitive Plasmodium falciparum D6; format: toxicity, cell-based; details: read-out: Ratio ED50
[7] = Selectivity index, ratio of ED50 for human BCA1 cells to ED50 for chloroquine-sensitive Plasmodium falciparum D6; format: toxicity, cell-based; details: read-out: Ratio ED50
[8] = Selectivity index, ratio of ED50 for human MEL2 cells to ED50 for chloroquine-sensitive Plasmodium falciparum D6; format: toxicity, cell-based; details: read-out: Ratio ED50
[9] = Selectivity index, ratio of ED50 for human LUC1 cells to ED50 for chloroquine-resistant Plasmodium falciparum W2; format: toxicity, cell-based; details: read-out: Ratio ED50
[10] = Cytotoxicity against human SK-MEL-2 cells after 3 days by sulforhodamine B assay; format: cell-based; details: read-out: ED50
[11] = Cytotoxicity against human LUC1 cells after 3 days by sulforhodamine B assay; format: cell-based; details: read-out: ED50
[12] = in vitro; details: mouse, P388 cells; remark: listed apart in the source
Description: Selectivity index, ratio of ED50 for mice (Mus musculus) P388 cells to ED50 for chloroquine-sensitive Plasmodium falciparum D6

[13] = Selectivity index, ratio of ED50 for human COL1 cells to ED50 for chloroquine-resistant Plasmodium falciparum W2; format: toxicity, cell-based; details: read-out: Ratio ED50
[14] = Cytotoxicity against mouse P388 cells after 2 days by sulforhodamine B assay; format: cell-based; details: read-out: ED50
[15] = Selectivity index, ratio of ED50 for human KB-V1 cells to ED50 for chloroquine-sensitive Plasmodium falciparum D6; format: toxicity, cell-based; details: read-out: Ratio ED50
[16] = Selectivity index, ratio of ED50 for human KB-V1 cells to ED50 for chloroquine-resistant Plasmodium falciparum W2; format: toxicity, cell-based; details: read-out: Ratio ED50
[17] = system: Plasmodium falciparum; test: Antimalarial activity after 24 hrs against chloroquine-resistant Plasmodium falciparum W2 infected type A+ human erythrocytes by [3H]hypoxanthine uptake; format: functional; details: read-out: ED50 (the source's name)
[18] = Selectivity index, ratio of ED50 for human LNCaP cells to ED50 for chloroquine-sensitive Plasmodium falciparum D6; format: toxicity, cell-based; details: read-out: Ratio ED50
[19] = Selectivity index, ratio of ED50 for human BCA1 cells to ED50 for chloroquine-resistant Plasmodium falciparum W2; format: toxicity, cell-based; details: read-out: Ratio ED50
[20] = Selectivity index, ratio of ED50 for human HT1080 cells to ED50 for chloroquine-resistant Plasmodium falciparum W2; format: toxicity, cell-based, HT-1080; details: read-out: Ratio ED50
[21] = Selectivity index, ratio of ED50 for human ZR-75-1 cells to ED50 for chloroquine-resistant Plasmodium falciparum W2; format: toxicity, cell-based; details: read-out: Ratio ED50
[22] = Cytotoxicity against human A431 cells after 3 days by sulforhodamine B assay; format: cell-based, A-431; details: read-out: ED50
[23] = Selectivity index, ratio of ED50 for human ZR-75-1 cells to ED50 for chloroquine-sensitive Plasmodium falciparum D6; format: toxicity, cell-based; details: read-out: Ratio ED50
[24] = in vitro; details: human, A431 cells
Description: Selectivity index, ratio of ED50 for human A431 cells to ED50 for chloroquine-sensitive Plasmodium falciparum D6

[25] = Selectivity index, ratio of ED50 for human KB cells to ED50 for chloroquine-resistant Plasmodium falciparum W2; format: toxicity, cell-based; details: read-out: Ratio ED50
[26] = Cytotoxicity against human HT1080 cells after 3 days by sulforhodamine B assay; format: cell-based, HT-1080; details: read-out: ED50
[27] = Cytotoxicity against human LNCAP cells after 3 days by sulforhodamine B assay; format: cell-based; details: read-out: ED50
[28] = Selectivity index, ratio of ED50 for human LUC1 cells to ED50 for chloroquine-sensitive Plasmodium falciparum D6; format: toxicity, cell-based; details: read-out: Ratio ED50
[29] = Selectivity index, ratio of ED50 for human LNCaP cells to ED50 for chloroquine-resistant Plasmodium falciparum W2; format: toxicity, cell-based; details: read-out: Ratio ED50
[30] = Cytotoxicity against human BCA1 cells after 3 days by sulforhodamine B assay; format: cell-based; details: read-out: ED50
[31] = Cytotoxicity against human ZR-75-1 cells after 3 days by sulforhodamine B assay; format: cell-based; details: read-out: ED50
[32] = Cytotoxicity against human KBV1 cells after 3 days by sulforhodamine B assay; format: cell-based, KB-V1; details: read-out: ED50
[33] = in vitro; details: human, A431 cells; remark: listed apart in the source
Description: Selectivity index, ratio of ED50 for human A431 cells to ED50 for chloroquine-resistant Plasmodium falciparum W2

[34] = Selectivity index, ratio of ED50 for human MEL2 cells to ED50 for chloroquine-resistant Plasmodium falciparum W2; format: toxicity, cell-based; details: read-out: Ratio ED50
[35] = Selectivity index, ratio of ED50 for human KB cells to ED50 for chloroquine-sensitive Plasmodium falciparum D6; format: toxicity, cell-based; details: read-out: Ratio ED50

Compound: COc1ccc2cc1Oc1ccc(cc1)C[C@H]1c3cc(c(OC)cc3CCN1C)Oc1c(OC)c(OC)cc3c1[C@@H](C2)N(C)CC3
- selectivity ratio [1]: 103
- CC50 at 72 h [2]: 10.5 µg/mL (≈ 16.9 µM)
- EC50 [3]: 0.165 µg/mL (≈ 0.265 µM)
- selectivity ratio [4]: 67
- CC50 at 72 h [5]: 6.6 µg/mL (≈ 10.6 µM)
- selectivity ratio [6]: 64
- selectivity ratio [7]: 33
- selectivity ratio [8]: 118
- selectivity ratio [9]: 183
- CC50 at 72 h [10]: 19.5 µg/mL (≈ 31.3 µM)
- CC50 at 72 h [11]: 10 µg/mL (≈ 16.1 µM)
- selectivity ratio [12]: 34
- selectivity ratio [13]: 192
- CC50 at 48 h [14]: 5.6 µg/mL (≈ 8.99 µM)
- selectivity ratio [15]: 9
- selectivity ratio [16]: 28
- EC50 [17]: 0.0546 µg/mL (≈ 0.0877 µM)
- selectivity ratio [18]: 57
- selectivity ratio [19]: 99
- selectivity ratio [20]: 202
- selectivity ratio [21]: 92
- CC50 at 72 h [22]: 8.4 µg/mL (≈ 13.5 µM)
- selectivity ratio [23]: 30
- selectivity ratio [24]: 51
- selectivity ratio [25]: 121
- CC50 at 72 h [26]: 11 µg/mL (≈ 17.7 µM)
- CC50 at 72 h [27]: 9.4 µg/mL (≈ 15.1 µM)
- selectivity ratio [28]: 61
- selectivity ratio [29]: 172
- CC50 at 72 h [30]: 5.4 µg/mL (≈ 8.67 µM)
- CC50 at 72 h [31]: 5 µg/mL (≈ 8.03 µM)
- CC50 at 72 h [32]: 1.5 µg/mL (≈ 2.41 µM)
- selectivity ratio [33]: 154
- selectivity ratio [34]: 357
- selectivity ratio [35]: 40

Compound: COc1ccc2cc1Oc1ccc(cc1)C[C@H]1c3cc(c(OC)cc3CCN1C)Oc1c(OC)c(OC)cc3c1[C@@H](C2)NCC3
- selectivity ratio [1]: 104
- CC50 at 72 h [2]: 7.6 µg/mL (≈ 12.5 µM)
- EC50 [3]: 0.0661 µg/mL (≈ 0.109 µM)
- selectivity ratio [4]: 114
- CC50 at 72 h [5]: 6.3 µg/mL (≈ 10.3 µM)
- selectivity ratio [6]: 115
- selectivity ratio [7]: 67
- selectivity ratio [8]: 124
- selectivity ratio [9]: 216
- CC50 at 72 h [10]: 8.2 µg/mL (≈ 13.5 µM)
- CC50 at 72 h [11]: 9.8 µg/mL (≈ 16.1 µM)
- selectivity ratio [12]: 71
- selectivity ratio [13]: 168
- CC50 at 48 h [14]: 4.7 µg/mL (≈ 7.72 µM)
- selectivity ratio [15]: 42
- selectivity ratio [16]: 62
- EC50 [17]: 0.0453 µg/mL (≈ 0.0744 µM)
- selectivity ratio [18]: 62
- selectivity ratio [19]: 97
- selectivity ratio [20]: 166
- selectivity ratio [21]: 40
- CC50 at 72 h [22]: 4.7 µg/mL (≈ 7.72 µM)
- selectivity ratio [23]: 27
- selectivity ratio [24]: 71
- selectivity ratio [25]: 139
- CC50 at 72 h [26]: 7.5 µg/mL (≈ 12.3 µM)
- CC50 at 72 h [27]: 4.1 µg/mL (≈ 6.74 µM)
- selectivity ratio [28]: 148
- selectivity ratio [29]: 91
- CC50 at 72 h [30]: 4.4 µg/mL (≈ 7.23 µM)
- CC50 at 72 h [31]: 1.8 µg/mL (≈ 2.96 µM)
- CC50 at 72 h [32]: 2.8 µg/mL (≈ 4.6 µM)
- selectivity ratio [33]: 104
- selectivity ratio [34]: 181
- selectivity ratio [35]: 95

Compound: COc1ccc2cc1Oc1ccc(cc1)C[C@H]1c3c(cc(OC)c4c3Oc3cc5c(cc3O4)CCN=C5C2)CCN1C
- selectivity ratio [1]: 12
- CC50 at 72 h [2]: 5 µg/mL (≈ 8.92 µM)
- EC50 [3]: 0.307 µg/mL (≈ 0.547 µM)
- selectivity ratio [4]: 7
- CC50 at 72 h [5]: 2.8 µg/mL (≈ 4.99 µM)
- selectivity ratio [6]: 16
- selectivity ratio [7]: 15
- selectivity ratio [8]: 32
- selectivity ratio [9]: 7
- CC50 at 72 h [10]: 9.9 µg/mL (≈ 17.7 µM)
- CC50 at 72 h [11]: 1.7 µg/mL (≈ 3.03 µM)
- selectivity ratio [12]: 10
- selectivity ratio [13]: 20
- CC50 at 48 h [14]: 3.1 µg/mL (≈ 5.53 µM)
- selectivity ratio [15]: 22
- selectivity ratio [16]: 27
- EC50 [17]: 0.256 µg/mL (≈ 0.457 µM)
- selectivity ratio [18]: 7
- selectivity ratio [19]: 18
- selectivity ratio [20]: 8
- selectivity ratio [21]: 3
- CC50 at 72 h [22]: 6 µg/mL (≈ 10.7 µM)
- selectivity ratio [23]: 2
- selectivity ratio [24]: 20
- selectivity ratio [25]: 11
- CC50 at 72 h [26]: 2.1 µg/mL (≈ 3.75 µM)
- CC50 at 72 h [27]: 2 µg/mL (≈ 3.57 µM)
- selectivity ratio [28]: 6
- selectivity ratio [29]: 8
- CC50 at 72 h [30]: 4.6 µg/mL (≈ 8.2 µM)
- CC50 at 72 h [31]: 0.7 µg/mL (≈ 1.25 µM)
- CC50 at 72 h [32]: 6.8 µg/mL (≈ 12.1 µM)
- selectivity ratio [33]: 23
- selectivity ratio [34]: 39
- selectivity ratio [35]: 9
